Results published in PMC8459971, “Evaluation of the hepatotoxicity of the novel GPR40 (FFAR1) agonist CPL207280 in the rat and monkey” (PLoS ONE, 2021).
Values joined by “and” are separate entries in the source; they are usually repeats but may differ in a detail not shown here. Identical values can stand only once. Values belong to the compound of their own block, whether it stands above or below them.

How the values were obtained:
[1] = Metabolite profiling, rat hepatocytes; format: in vitro ADME; settings: 10 μM CPL207280, 120 min, ND = not detected
Method: (§1) Suspensions of cryopreserved human, rat, and monkey hepatocytes were pooled from a minimum of three individuals. All cryopreserved hepatocytes were purchased from a commercial supplier. […] The cell density was 0.5 ×10^6 viable cells/mL. The final DMSO concentration during the incubation was 0.25%. Control incubations were performed in lysed cells to reveal any non-enzymatic degradation. Two control compounds were identified in each species. Samples (50 μL) were removed from the incubation mixture at 0, 10, 20, 40, 60, and 120 min and added to methanol containing an internal standard (100 μL) to stop the reaction. The samples were centrifuged (4000 x g at 4°C for 30 min) and the supernatants at each time point were pooled for analysis by LC MS/MS using Cyprotex generic methods. Following hepatocyte stability assays, the samples were utilized for metabolite profiling. […] Metabolites were characterized using a mass spectrometer comprising Waters Xevo QT of G2-S, Acquity Binary Solvent Manager, Acquity Column Manager, and 2777 Autosampler.

[2] = Metabolite profiling, human hepatocytes; format: in vitro ADME; settings: human hepatocytes, 10 μM CPL207280, 60 min; ND = not detected
Method: as §1

[3] = molecular target: T1, OAT2v1 (Homo sapiens, UniProt Q9Y694); test: Uptake transporter inhibition assay, OAT2v1; format: cell-based; settings: OAT2v1; reference inhibitor 300 µM
T1 construct: expressed in transfected cells; host or cells: HEK cells
T1 sequence (Q9Y694 1-546 isoform Q9Y694-2): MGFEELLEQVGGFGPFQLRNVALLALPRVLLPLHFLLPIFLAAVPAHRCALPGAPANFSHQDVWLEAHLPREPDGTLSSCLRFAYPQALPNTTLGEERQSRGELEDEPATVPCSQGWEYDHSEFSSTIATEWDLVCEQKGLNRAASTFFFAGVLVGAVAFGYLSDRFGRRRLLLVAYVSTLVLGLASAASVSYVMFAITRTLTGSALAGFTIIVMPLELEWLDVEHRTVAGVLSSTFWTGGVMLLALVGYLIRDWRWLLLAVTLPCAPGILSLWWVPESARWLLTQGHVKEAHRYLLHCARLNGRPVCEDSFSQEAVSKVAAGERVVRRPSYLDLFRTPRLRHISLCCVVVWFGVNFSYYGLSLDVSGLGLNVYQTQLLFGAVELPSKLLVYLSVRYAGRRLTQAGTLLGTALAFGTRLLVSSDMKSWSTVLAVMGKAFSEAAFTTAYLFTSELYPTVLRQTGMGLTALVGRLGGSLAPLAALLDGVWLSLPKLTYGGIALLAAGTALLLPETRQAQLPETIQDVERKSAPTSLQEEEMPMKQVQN
Method: (§2) For the uptake transporter inhibition assay, cells were washed twice with 100 μL of the appropriate buffer (HK, pH 7.4) for OATP1B1, followed by HBSS (pH 7.4) for (NTCP, OAT1, OAT2v1, OATP1A2, and OATP1B3). Uptake experiments were carried out at 37 ± 1°C in 50 μL of the respective buffer containing the probe substrate and the compound or solvent.

[4] = molecular target: MRP3 (Homo sapiens, UniProt O15438); test: Vesicular transport inhibition assay, MRP3; settings: MRP3; reference inhibitor 150 µM;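 further: membrane vesicles with radiolabelled probe substrate and 2 mM glutathione, 4 mM ATP versus AMP background control, vesicle-trapped substrate quantified by liquid scintillation counting after filtration; ATP 4 mM vs AMP background separates transporter uptake from diffusion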
Sequence of MRP3 (O15438 whole entry, the tested form may be a part): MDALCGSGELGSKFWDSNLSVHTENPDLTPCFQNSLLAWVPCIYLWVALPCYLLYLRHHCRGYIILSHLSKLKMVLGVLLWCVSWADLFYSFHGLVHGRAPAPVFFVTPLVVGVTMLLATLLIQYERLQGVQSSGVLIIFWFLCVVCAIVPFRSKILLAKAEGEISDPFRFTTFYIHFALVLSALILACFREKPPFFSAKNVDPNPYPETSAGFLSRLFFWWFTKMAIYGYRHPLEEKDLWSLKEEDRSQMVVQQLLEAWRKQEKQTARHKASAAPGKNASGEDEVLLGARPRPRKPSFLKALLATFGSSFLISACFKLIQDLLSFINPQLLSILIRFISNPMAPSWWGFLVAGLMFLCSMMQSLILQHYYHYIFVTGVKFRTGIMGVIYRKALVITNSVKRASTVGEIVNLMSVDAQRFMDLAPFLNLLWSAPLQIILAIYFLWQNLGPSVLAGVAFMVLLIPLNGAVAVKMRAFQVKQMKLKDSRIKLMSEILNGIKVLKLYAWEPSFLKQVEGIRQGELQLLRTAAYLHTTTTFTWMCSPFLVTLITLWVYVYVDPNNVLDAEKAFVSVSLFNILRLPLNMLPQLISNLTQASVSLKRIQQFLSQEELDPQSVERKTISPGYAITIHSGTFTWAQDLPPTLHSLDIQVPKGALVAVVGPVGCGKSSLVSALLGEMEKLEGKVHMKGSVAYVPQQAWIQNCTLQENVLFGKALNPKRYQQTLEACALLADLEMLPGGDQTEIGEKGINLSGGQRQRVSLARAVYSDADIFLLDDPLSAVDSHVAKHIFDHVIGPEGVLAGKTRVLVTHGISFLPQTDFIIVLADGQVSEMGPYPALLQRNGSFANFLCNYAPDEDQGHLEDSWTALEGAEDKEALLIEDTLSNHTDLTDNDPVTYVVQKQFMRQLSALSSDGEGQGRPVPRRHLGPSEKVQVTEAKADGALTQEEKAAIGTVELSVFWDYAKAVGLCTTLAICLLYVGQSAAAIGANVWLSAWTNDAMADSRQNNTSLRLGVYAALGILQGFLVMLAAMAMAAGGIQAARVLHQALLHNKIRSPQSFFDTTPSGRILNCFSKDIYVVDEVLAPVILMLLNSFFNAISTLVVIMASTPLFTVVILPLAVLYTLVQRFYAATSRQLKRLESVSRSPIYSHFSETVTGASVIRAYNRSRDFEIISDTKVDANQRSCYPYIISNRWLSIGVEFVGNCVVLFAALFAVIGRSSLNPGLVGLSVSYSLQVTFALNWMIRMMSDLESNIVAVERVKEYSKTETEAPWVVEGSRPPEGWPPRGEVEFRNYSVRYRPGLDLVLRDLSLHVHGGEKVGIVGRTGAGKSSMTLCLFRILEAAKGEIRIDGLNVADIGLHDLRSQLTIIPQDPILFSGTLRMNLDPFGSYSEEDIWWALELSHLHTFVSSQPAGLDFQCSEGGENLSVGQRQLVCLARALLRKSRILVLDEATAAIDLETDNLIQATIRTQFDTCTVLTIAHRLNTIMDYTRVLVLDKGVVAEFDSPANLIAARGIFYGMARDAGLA

[5] = molecular target: T2, MRP4 (Homo sapiens, UniProt O15439); test: Vesicular transport inhibition assay, MRP4; settings: MRP4; reference inhibitor 150 µM;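 further: membrane vesicles with MRP4 incubated with compound and probe substrate plus 4 mM ATP, or AMP as passive-diffusion background, vesicular substrate uptake read by liquid scintillation counting; ATP 4 mM vs AMP background separates transporter uptake from diffusion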
T2 sequence (O15439 1-1325): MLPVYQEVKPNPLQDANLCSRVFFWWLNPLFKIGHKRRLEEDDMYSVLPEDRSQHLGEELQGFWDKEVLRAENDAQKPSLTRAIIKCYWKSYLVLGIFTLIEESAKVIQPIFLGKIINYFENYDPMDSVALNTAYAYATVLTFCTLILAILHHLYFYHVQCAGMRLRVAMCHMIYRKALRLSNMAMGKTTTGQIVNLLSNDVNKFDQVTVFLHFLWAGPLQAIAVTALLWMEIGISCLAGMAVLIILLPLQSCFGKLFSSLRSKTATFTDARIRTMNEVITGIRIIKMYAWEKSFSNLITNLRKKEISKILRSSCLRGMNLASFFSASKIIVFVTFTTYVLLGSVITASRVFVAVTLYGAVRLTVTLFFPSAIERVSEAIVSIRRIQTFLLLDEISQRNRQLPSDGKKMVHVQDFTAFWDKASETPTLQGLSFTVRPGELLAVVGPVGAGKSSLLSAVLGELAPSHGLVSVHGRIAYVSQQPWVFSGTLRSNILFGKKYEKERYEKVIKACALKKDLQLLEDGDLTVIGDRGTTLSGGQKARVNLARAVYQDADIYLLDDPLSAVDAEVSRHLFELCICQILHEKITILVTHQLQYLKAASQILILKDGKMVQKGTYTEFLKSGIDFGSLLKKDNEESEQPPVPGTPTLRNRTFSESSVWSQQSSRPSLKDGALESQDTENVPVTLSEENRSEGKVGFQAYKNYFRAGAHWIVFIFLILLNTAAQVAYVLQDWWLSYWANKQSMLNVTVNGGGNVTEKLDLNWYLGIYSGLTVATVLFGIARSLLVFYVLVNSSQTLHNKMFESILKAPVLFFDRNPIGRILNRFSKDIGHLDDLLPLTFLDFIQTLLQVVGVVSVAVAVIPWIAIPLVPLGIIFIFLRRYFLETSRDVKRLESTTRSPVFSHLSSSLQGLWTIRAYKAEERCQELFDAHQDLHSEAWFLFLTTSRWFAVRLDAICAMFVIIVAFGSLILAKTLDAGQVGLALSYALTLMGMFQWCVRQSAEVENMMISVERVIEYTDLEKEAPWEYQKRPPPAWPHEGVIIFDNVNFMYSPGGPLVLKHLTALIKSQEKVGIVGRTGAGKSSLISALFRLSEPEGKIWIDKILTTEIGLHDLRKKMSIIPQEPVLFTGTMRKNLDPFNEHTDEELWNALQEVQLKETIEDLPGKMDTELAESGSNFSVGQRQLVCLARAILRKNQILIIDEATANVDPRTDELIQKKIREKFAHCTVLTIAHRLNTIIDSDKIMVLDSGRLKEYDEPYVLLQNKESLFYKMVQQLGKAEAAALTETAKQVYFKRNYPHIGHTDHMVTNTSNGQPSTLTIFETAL

[6] = molecular target: MRP2 (Homo sapiens, UniProt Q92887); test: Vesicular transport inhibition assay, MRP2; settings: MRP2; reference inhibitor 200 µM;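 further: membrane vesicles with probe substrate plus 2 mM glutathione, incubated with 4 mM ATP or AMP (AMP as background control), vesicle-retained substrate measured by liquid scintillation counting; ATP 4 mM vs AMP background separates transporter uptake from diffusion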
Sequence of MRP2 (Q92887 whole entry, the tested form may be a part): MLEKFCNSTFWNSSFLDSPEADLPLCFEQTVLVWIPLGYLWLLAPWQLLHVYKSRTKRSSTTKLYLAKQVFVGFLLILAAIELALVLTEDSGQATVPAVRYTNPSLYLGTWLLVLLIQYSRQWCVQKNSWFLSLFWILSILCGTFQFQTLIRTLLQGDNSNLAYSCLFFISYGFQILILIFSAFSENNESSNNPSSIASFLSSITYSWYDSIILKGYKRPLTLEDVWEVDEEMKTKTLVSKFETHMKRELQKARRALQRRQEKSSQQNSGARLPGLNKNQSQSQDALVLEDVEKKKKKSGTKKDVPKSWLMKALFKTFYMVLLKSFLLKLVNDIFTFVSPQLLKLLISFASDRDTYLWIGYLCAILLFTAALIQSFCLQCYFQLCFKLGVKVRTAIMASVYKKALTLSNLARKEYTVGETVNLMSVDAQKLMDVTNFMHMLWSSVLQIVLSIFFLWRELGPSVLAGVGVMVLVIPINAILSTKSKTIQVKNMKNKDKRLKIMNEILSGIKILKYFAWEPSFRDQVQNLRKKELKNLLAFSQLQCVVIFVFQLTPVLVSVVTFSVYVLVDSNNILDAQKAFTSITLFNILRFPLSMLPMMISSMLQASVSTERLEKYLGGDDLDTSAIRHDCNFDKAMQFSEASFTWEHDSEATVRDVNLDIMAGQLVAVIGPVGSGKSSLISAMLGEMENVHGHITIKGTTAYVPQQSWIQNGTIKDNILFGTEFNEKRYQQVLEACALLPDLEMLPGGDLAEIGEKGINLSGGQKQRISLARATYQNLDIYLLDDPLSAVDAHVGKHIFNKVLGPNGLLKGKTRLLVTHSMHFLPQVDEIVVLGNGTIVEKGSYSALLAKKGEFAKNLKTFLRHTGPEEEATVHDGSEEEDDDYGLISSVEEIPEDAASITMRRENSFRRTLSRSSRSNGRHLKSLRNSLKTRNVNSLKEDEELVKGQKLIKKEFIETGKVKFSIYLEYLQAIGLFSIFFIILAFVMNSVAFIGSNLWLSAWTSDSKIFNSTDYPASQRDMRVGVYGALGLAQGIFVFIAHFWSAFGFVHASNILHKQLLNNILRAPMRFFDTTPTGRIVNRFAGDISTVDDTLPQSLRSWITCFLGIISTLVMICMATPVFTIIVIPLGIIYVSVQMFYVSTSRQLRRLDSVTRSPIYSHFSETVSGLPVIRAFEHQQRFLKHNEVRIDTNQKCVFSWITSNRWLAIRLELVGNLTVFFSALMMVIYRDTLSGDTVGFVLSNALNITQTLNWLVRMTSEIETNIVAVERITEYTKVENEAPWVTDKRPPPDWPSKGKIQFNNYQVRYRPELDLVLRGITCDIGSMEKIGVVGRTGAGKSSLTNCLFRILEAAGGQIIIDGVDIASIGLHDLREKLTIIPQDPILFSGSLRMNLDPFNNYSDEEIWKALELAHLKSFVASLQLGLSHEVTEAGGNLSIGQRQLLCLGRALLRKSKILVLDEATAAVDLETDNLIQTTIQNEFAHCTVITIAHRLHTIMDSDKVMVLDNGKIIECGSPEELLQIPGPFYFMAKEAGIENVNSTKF

[7] = molecular target: T3, OAT1 (Homo sapiens, UniProt Q4U2R8); test: Uptake transporter inhibition assay, OAT1; settings: OAT1; reference inhibitor 300 µM;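 further: HEK293FT cells expressing OAT1 or mock, uptake of radiolabeled probe substrate at 37 °C in HBSS pH 7.4 with test compound or solvent, cell lysate read by liquid scintillation counting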
T3 sequence (Q4U2R8 1-563): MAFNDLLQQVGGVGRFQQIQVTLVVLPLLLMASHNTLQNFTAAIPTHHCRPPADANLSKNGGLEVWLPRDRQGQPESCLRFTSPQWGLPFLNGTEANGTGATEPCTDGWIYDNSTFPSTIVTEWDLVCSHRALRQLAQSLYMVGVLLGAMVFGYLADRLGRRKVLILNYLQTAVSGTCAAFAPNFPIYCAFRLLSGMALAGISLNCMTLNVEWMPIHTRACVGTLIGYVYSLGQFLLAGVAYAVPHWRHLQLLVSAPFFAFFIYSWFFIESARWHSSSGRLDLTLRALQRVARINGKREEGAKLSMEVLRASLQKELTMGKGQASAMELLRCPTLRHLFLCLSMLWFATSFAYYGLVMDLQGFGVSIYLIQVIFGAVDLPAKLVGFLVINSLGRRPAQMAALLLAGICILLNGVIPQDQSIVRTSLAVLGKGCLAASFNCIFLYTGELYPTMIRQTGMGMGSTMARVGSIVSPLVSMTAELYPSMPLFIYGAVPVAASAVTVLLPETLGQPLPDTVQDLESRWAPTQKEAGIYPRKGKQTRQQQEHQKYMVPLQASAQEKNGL

[8] = molecular target: T4, NTCP (Homo sapiens, UniProt Q14973); test: Uptake transporter inhibition assay, NTCP; format: cell-based; settings: NTCP; reference inhibitor 300 µM
T4 construct: expressed in transfected cells; host or cells: HEK cells
T4 sequence (Q14973 1-349): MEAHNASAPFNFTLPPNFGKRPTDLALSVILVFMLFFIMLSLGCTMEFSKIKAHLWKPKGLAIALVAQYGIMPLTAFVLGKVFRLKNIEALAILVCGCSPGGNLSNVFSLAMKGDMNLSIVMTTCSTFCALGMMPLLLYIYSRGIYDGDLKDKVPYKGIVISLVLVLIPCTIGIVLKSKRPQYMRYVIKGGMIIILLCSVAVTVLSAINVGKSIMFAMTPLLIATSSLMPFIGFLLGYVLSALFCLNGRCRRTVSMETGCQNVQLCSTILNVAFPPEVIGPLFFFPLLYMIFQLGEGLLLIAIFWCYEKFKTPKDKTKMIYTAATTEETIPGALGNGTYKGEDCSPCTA
Method: as §2

Compound: COc1ccc2c(c1)c(CC(=O)O)c(C)n2C(=O)c1ccc(Cl)cc1 [Indomethacin]
Accumulation (counts per minute; CPM) HEK293FT-OAT2v1 [3]: 503 CPM and 467 CPM and 353 CPM and 367 CPM

Compound: CN(C)C(=O)CCSC(SCCC(=O)O)c1cccc(/C=C/c2ccc3ccc(Cl)cc3n2)c1 (stereo not shown) [MK571]
Accumulation (counts per minute; CPM) with AMP [4]: 193 CPM and 200 CPM and 153 CPM and 106 CPM
Accumulation (counts per minute; CPM) with ATP [4]: 299 CPM and 302 CPM and 151 CPM and 183 CPM
Accumulation (counts per minute; CPM) with AMP [5]: 1227 CPM and 1197 CPM
Accumulation (counts per minute; CPM) with ATP [5]: 1356 CPM and 1304 CPM

The next lines start with results.

rat % of parent at 120 min [1]: 2.88%
human % of parent at 60 min [2]: 1.44%
Compound: CC#CC(CC(=O)OC1OC(C(=O)O)C(O)C(O)C1O)c1ccc(OCC(C)=C(C)C)cc1 (stereo not shown) [M15]

Accumulation (counts per minute; CPM) with AMP [6]: 198 CPM and 209 CPM
Accumulation (counts per minute; CPM) with ATP [6]: 183 CPM and 176 CPM
Accumulation (counts per minute; CPM) HEK293FT-MOCK [7]: 48 CPM and 31 CPM and 32 CPM and 38 CPM
Accumulation (counts per minute; CPM) HEK293FT-OAT1 [7]: 76 CPM and 82 CPM and 74 CPM and 83 CPM
Compound: CCc1oc2ccccc2c1C(=O)c1cc(Br)c(O)c(Br)c1 [Benzbromarone]

Accumulation (counts per minute; CPM) HEK293FT-MOCK [8]: 24 CPM and 25 CPM and 21 CPM and 27 CPM
Compound: C[C@H](CCC(=O)NCCS(=O)(=O)O)[C@H]1CC[C@H]2[C@@H]3[C@H](O)C[C@@H]4C[C@H](O)CC[C@]4(C)[C@H]3CC[C@]12C [TCDC]
Accumulation (counts per minute; CPM) HEK293-NTCP [8]: 257 CPM and 289 CPM and 184 CPM and 282 CPM
